Patent US10759766B2, “Certain chemical entities, compositions, and methods” (NeuPharma, Inc., priority 2011, dated 2020)

Key:
BRAF V600E = BRAF V600E (Homo sapiens (Human), UniProt P15056, V600E); experiment: Z′-LYTE kinase inhibition assay (Invitrogen), BRAF V600E; type: biochemical; details: 1 μM compound, Z′-LYTE method; read-out: % inhibition at 1 μM against BRAF V600E
Procedure: (§1) Inhibitory activities Inhibitory activities of compounds against BRAF, and BRAF V600E were measured by Invitrogen using Z′-LYTE® Method as briefly described in the following. 4× Test compounds are dissolved in 1% DMSO. […] ATP solutions are diluted to a 4×ATP working concentration in Kinase Buffer (50 mM HEPES pH 7.5, 0.01% BRIJ-35, 10 mM MgCl2, 1 mM EGTA). Reaction started by 30-second shaking of mixture consisting of 2.5 μL 4× test compound, […] and 2.5 μL 4×ATP Solution on Bar-coded Corning, low volume NBS, black 384-well plate (Corning Cat. #3676). Then the mixture was incubated for 60-minute at room temperature for the kinase reaction, followed by addition of 5 μL of a 1:1024 dilution of development reagent A and 30-second plate shake. The mixture was then incubated for another 60-minute at room temperature for development reaction. Fluorescence was read by plate reader. IC50 was calculated by plotting the concentration of compound vs the percentage of inhibition in treated wells using GraphPad Prism 5.
The scale utilized in Table 3 is as follows: +++ less than 100 nM; and ++ greater than 100 nM.

A549 cells = experiment: Inhibition of cancer cell growth, MTT assay, A549; type: cell-based; details: Homo sapiens, A549, 72 h exposure
Procedure: (§2) Inhibition of cell growth by compounds was measured using MTT assay (Mosmann, T., Journal of Immunological Methods, 1983, 65, 55-63). Tumor cell lines were purchased from ATCC (American Type Culture Collection, Manassas, Va.). All cell lines were maintained in RPMI 1640 (Hyclone) supplemented with 10% fetal bovine serum (FBS, Hyclone), glutamine (2 mM, Hyclone), and antibiotics (penicillin 100 U/mL and streptomycin 50 μg/mL) at 37° C. in a humidified atmosphere of 5% CO2 in air. Taxol (as a positive control, Sigma) and compounds were dissolved in DMSO (Sigma), and the final concentration of DMSO in the medium was 1%. Tumor cells were plated in 96-well plates at densities of about 4000 cells/well of a 96-well plate and allowed to adhere/grow for 24 h. They were then treated with various concentrations of drug for 72 h. 3-(4,5-Dimethylthiazol-2-yl)-2,5-diphenyltetrazolium bromide (MTT, Sigma) was used to determine the number of viable cells at the time of compound addition and the number of cells remaining after 72 h compound exposure. The number of cells remaining after 72 h was compared to the number of viable cells at the time of compound addition by measuring the absorbance at 570 nm, allowing for the calculation of growth inhibition.
(§3) All concentrations of compounds were tested in triplicate and controls were averaged over 4 wells. IC50 was calculated by plotting the concentration of compound vs the percentage of inhibition in treated wells using GraphPad Prism 5. […] The scale utilized in Table 6 is as follows: +++ less than 1000 nM; ++ between 1000 nM and 5000 nM; and + greater than 5000 nM. The scale utilized in Table 7 is as follows: +++ less than 2000 nM; ++ between 2000 nM and 5000 nM; and + greater than 5000 nM.

A375 cells = experiment: Inhibition of cancer cell growth, MTT assay, A375; type: cell-based; details: Homo sapiens, A-375, 72 h exposure
Procedure: as §2, §3

KDR (VEGFR2) = KDR (VEGFR2) (Homo sapiens (Human), UniProt P35968); experiment: Z′-LYTE kinase inhibition assay (Invitrogen), KDR; type: biochemical; details: Z′-LYTE method; for inhibition at 1 µM: 1 μM compound, read-out: % inhibition at 1 μM against KDR
Procedure: as §1
Inhibitory activities of compounds against KDR (VEGFR2) were also measured by Invitrogen using Z′-LYTE® Method as described above with the following modification. The 2× KDR (VEGFR2)/Tyr 01 mixture is prepared in 50 mM HEPES pH 7.5, 0.01% BRIJ-35, 10 mM MgCl2, 1 mM EGTA. The final 10 μL Kinase Reaction consists of 0.5-11.7 ng KDR (VEGFR2) and 2 μM Tyr 01 in 50 mM HEPES pH 7.5, 0.01% BRIJ-35, 10 mM MgCl2, 1 mM EGTA. After the 1 hour Kinase Reaction incubation, 5 μL of a 1:256 dilution of Development Reagent B is added.
The scale utilized in Table 5 is as follows: +++ less than 100 nM; and ++ greater than 100 nM

KDR (VEGFR2), sequence (P35968 20-1356): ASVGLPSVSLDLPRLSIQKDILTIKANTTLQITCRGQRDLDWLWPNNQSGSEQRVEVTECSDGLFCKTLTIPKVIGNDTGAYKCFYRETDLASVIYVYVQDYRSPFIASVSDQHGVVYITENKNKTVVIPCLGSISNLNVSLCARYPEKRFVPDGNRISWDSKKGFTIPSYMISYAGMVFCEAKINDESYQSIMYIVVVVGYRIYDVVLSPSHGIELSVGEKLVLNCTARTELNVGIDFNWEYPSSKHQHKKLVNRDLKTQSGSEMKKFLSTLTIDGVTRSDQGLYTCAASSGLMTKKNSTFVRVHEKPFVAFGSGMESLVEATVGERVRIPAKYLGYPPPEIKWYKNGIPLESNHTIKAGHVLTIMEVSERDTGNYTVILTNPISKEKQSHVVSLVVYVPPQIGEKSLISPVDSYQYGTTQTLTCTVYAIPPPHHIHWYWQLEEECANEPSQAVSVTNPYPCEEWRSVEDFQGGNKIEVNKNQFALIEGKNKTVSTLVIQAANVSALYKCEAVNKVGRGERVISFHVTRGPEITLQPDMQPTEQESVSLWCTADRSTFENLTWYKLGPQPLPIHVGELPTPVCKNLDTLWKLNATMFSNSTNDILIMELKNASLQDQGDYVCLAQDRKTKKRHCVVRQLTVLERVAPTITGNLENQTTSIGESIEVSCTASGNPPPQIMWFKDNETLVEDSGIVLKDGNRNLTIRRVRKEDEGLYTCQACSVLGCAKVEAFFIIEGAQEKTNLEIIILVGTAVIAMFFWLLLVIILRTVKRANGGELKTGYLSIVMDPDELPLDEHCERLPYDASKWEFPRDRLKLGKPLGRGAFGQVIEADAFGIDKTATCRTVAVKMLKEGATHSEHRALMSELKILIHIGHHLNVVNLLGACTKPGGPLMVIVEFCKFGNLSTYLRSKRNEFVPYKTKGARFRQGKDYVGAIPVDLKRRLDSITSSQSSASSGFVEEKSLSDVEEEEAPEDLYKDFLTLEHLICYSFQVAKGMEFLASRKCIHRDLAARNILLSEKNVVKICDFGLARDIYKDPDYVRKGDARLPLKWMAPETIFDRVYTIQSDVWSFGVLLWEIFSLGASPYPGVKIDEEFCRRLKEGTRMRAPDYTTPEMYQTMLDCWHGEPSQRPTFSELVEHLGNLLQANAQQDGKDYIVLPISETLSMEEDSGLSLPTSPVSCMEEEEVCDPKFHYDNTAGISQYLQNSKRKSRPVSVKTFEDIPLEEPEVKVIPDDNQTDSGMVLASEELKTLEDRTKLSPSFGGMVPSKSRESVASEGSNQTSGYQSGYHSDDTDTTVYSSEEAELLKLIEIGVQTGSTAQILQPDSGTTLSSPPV
BRAF V600E, sequence (P15056 whole entry V600E): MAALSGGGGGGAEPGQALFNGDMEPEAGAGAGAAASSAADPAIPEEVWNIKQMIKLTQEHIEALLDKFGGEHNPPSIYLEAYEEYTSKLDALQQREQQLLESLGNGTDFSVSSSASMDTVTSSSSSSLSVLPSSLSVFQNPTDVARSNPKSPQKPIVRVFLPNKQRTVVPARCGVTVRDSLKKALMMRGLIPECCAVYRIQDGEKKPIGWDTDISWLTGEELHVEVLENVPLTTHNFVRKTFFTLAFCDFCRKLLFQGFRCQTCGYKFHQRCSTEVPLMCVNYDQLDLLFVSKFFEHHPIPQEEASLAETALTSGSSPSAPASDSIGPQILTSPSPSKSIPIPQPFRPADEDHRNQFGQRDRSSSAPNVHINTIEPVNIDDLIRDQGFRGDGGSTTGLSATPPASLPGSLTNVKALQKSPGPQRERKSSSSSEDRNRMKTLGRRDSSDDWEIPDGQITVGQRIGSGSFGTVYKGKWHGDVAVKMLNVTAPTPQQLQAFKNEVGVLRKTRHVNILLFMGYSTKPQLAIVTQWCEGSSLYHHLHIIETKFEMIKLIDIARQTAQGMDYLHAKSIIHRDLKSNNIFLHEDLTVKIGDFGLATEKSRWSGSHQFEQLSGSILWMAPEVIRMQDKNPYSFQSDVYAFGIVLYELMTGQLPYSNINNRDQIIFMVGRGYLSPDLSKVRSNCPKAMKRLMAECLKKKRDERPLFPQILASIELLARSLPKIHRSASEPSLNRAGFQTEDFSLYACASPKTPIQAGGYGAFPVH

SMILES | inhibition at 1 µM (BRAF V600E) | IC50 (A549 cells) | IC50 (A375 cells) | inhibition at 1 µM (KDR (VEGFR2)) | IC50 (KDR (VEGFR2); read-out: IC50 against KDR)
O=C(Nc1ccc(F)c(C(=O)c2ccc3ncc(N4CCNCC4)nc3c2)c1)Nc1ccc(Cl)c(C(F)(F)F)c1 [Compound C086] | > 89% | 2 to 5 µM | < 1 µM | > 89% | < 0.1 µM
O=C(Nc1cc(F)cc(C(=O)c2ccc3nccnc3c2)c1)c1ccc(Cl)c(C(F)(F)F)c1 [Compound C127, 4-chloro-N-(3-fluoro-5-(quinoxaline-6-carbonyl)phenyl)-3-(trifluoromethyl)benzamide] | 70 to 89% | > 5 µM | > 5 µM | < 70% | 
O=C(Nc1cc(F)cc(C(=O)c2ccc3nccnc3c2)c1)Nc1ccc(F)c(Cl)c1 [Compound C067, 1-(3-chloro-4-fluorophenyl)-3-(3-fluoro-5-(quinoxaline-6-carbonyl)phenyl)urea] | > 89% | 2 to 5 µM | 1 to 5 µM | < 70% | 
O=C(Nc1cc(F)cc(C(=O)c2ccc3nccnc3c2)c1)Nc1ccc(Cl)c(F)c1 [Compound C061, 1-(4-chloro-3-fluorophenyl)-3-(3-fluoro-5-(quinoxaline-6-carbonyl)phenyl)urea] | > 89% | 2 to 5 µM | > 5 µM | < 70% | 
O=C(Nc1ccc(F)c(C(=O)c2ccc3nccnc3c2)c1)c1cccc(F)c1 [Compound C115, 3-fluoro-N-(4-fluoro-3-(quinoxaline-6-carbonyl)phenyl)benzamide] | > 89% | > 5 µM | > 5 µM | 70 to 89% | 
O=C(Nc1ccc(Cl)c(C(F)(F)F)c1)Nc1cc(F)c(F)c(C(=O)c2ccc3ncc(N4CCOCC4)nc3c2)c1F [Compound C032, 1-(4-chloro-3-(trifluoromethyl)phenyl)-3-(2,4,5-trifluoro-3-(3-morpholinoquinoxaline-6-carbonyl)phenyl)urea] | < 70% | 2 to 5 µM | 1 to 5 µM | < 70% | 
O=C(Nc1ccc(F)cc1)Nc1cc(F)cc(C(=O)c2ccc3nccnc3c2)c1 [Compound C064, 1-(3-fluoro-5-(quinoxaline-6-carbonyl)phenyl)-3-(4-fluorophenyl)urea] | > 89% | > 5 µM | > 5 µM | < 70% | 
O=C(Nc1cccc(F)c1)Nc1cc(F)cc(C(=O)c2ccc3nccnc3c2)c1 [Compound C025, 1-(3-fluoro-5-(quinoxaline-6-carbonyl)phenyl)-3-(3-fluorophenyl)urea] | > 89% | > 5 µM | > 5 µM | < 70% | 
O=C(Nc1cc(F)cc(C(=O)c2ccc3ncc(N4CCOCC4)nc3c2)c1)c1ccc(Cl)c(C(F)(F)F)c1 [Compound C135, 4-chloro-N-(3-fluoro-5-(3-morpholinoquinoxaline-6-carbonyl)phenyl)-3-(trifluoromethyl)benzamide] | 70 to 89% | > 5 µM | 1 to 5 µM | < 70% | 
O=C(Nc1cccc(C(=O)c2ccc3ncc(N4CCCC4)nc3c2)c1)Nc1ccc(Cl)c(C(F)(F)F)c1 [Compound C021, 1-(4-chloro-3-(trifluoromethyl)phenyl)-3-(3-(3-(pyrrolidin-1-yl)quinoxaline-6-carbonyl)phenyl)urea] | 70 to 89% | > 5 µM | 1 to 5 µM | > 89% | 
O=C(Nc1ccc(F)cc1)Nc1ccc(F)c(C(=O)c2ccc3nccnc3c2)c1 [Compound C070, 1-(4-fluoro-3-(quinoxaline-6-carbonyl)phenyl)-3-(4-fluorophenyl)urea] | > 89% | > 5 µM | 1 to 5 µM | > 89% | 
O=C(Nc1ccc(Cl)cc1)Nc1ccc(F)c(C(=O)c2ccc3ncc(N4CCOCC4)nc3c2)c1 [Compound C054, 1-(4-chlorophenyl)-3-(4-fluoro-3-(3-morpholinoquinoxaline-6-carbonyl)phenyl)urea] | > 89% | < 2 µM | < 1 µM | > 89% | 
O=C(Nc1ccc(Cl)cc1)Nc1cc(F)cc(C(=O)c2ccc3nccnc3c2)c1 [Compound C063, 1-(4-chlorophenyl)-3-(3-fluoro-5-(quinoxaline-6-carbonyl)phenyl)urea] | > 89% | > 5 µM | 1 to 5 µM | < 70% | 
O=C(Nc1cc(F)c(F)c(C(=O)c2ccc3nccnc3c2)c1)c1ccc(Cl)c(C(F)(F)F)c1 [Compound C129, 4-chloro-N-(3,4-difluoro-5-(quinoxaline-6-carbonyl)phenyl)-3-(trifluoromethyl)benzamide] | > 89% | > 5 µM | 1 to 5 µM | 70 to 89% | 
O=C(Nc1ccc(C(F)(F)F)cc1)Nc1ccc(F)c(C(=O)c2ccc3nccnc3c2)c1 [Compound C075, 1-(4-fluoro-3-(quinoxaline-6-carbonyl)phenyl)-3-(4-(trifluoromethyl)phenyl)urea] | > 89% | < 2 µM | < 1 µM | < 70% | 
O=C(Nc1cccc(F)c1)Nc1cc(F)c(F)c(C(=O)c2ccc3nccnc3c2)c1 [Compound C024, 1-(3,4-difluoro-5-(quinoxaline-6-carbonyl)phenyl)-3-(3-fluorophenyl)urea] | > 89% | < 2 µM | > 5 µM | 70 to 89% | 
O=C(Nc1cccc(F)c1)Nc1ccc(F)c(C(=O)c2ccc3nccnc3c2)c1 [Compound C013, 1-(4-fluoro-3-(quinoxaline-6-carbonyl)phenyl)-3-(3-fluorophenyl)urea] | > 89% | 2 to 5 µM | 1 to 5 µM | 70 to 89% | 
O=C(Nc1cccc(F)c1)Nc1ccc(F)c(C(=O)c2ccc3nccnc3c2)c1F [Compound C011, 1-(2,4-difluoro-3-(quinoxaline-6-carbonyl)phenyl)-3-(3-fluorophenyl)urea] | 70 to 89% | > 5 µM | > 5 µM | < 70% | 
O=C(Nc1cc(F)cc(C(=O)c2ccc3nccnc3c2)c1)Nc1ccc(F)c(F)c1 [Compound C065, 1-(3,4-difluorophenyl)-3-(3-fluoro-5-(quinoxaline-6-carbonyl)phenyl)urea] | > 89% | > 5 µM | > 5 µM | < 70% | 
O=C(Nc1cc(F)cc(C(=O)c2ccc3ncc(N4CCOCC4)nc3c2)c1)Nc1ccc(Cl)c(Cl)c1 [Compound C050, 1-(3,4-dichlorophenyl)-3-(3-fluoro-5-(3-morpholinoquinoxaline-6-carbonyl)phenyl)urea] | > 89% | < 2 µM | < 1 µM | 70 to 89% | 
O=C(Nc1ccc(F)c(C(=O)c2ccc3nccnc3c2)c1F)c1cccc(F)c1 [Compound C113, N-(2,4-difluoro-3-(quinoxaline-6-carbonyl)phenyl)-3-fluorobenzamide] | 70 to 89% | > 5 µM | > 5 µM | < 70% | 
